Test results: patent publication US8877163B2, “Cycloalkyl triamine pentacarboxylate as ligands for paramagnetic metal complexes” (Kaohsiung Medical University, priority 2006, dated 2014)
Where two headings read alike, the source gives them in different places. Each block holds one compound with its values, some of them ahead of it.

Columns and labels:
[1] = 20 MHz, 37.0 ± 0.1° C., cited from earlier work
[2] = Stability constants of the gadolinium complex by potentiometric titration (BEST program); assay type: physicochemical
Description: (§1) Presently, there are two ways for calculating the thermodynamic stability constant of a metal complex by the potentiometric titration. […] The second method is suitable for the metal complex whose disassociation rate is less than 25% at low pH (such as pH 2). Take the metal complex of the present invention for instance, since it is not able to form a complex with the ligand at a pH value around 2, the thermodynamic stability constant thereof must be calculated by the previous method. The equation for the thermodynamic stability constant is defined as follows: [formula] where M represents the metal ion, L represents the ligand, and ML represents the metal complex. […] The thermodynamic stability constants for the metal complexes with CB-TTDA are determined from the titration data with the FORTRAN computer program BEST as shown in Table 2 with the reported thermodynamic stability constants of TTDA and DTPA, which are respectively reported by Y M. Wang et al., Inorganic Chemistry, vol. 44, page 382, 2005 and by P. Caravan et al., Inorganic Chemistry, vol. 44, page 2170, 2001. The conditional stability constant (Kcond) specifies the degree of metal chelation at a given pH and is defined as follows: […] [formula] where LT is the total concentration of the uncomplexed ligand, which is defined by the following equation: […]

[3] = biological target: human serum albumin (Homo sapiens, UniProt P02768); conditions: cited from earlier work; for relaxivity for the combination with human serum albumin: bound to human serum albumin
human serum albumin, sequence (P02768 25-609): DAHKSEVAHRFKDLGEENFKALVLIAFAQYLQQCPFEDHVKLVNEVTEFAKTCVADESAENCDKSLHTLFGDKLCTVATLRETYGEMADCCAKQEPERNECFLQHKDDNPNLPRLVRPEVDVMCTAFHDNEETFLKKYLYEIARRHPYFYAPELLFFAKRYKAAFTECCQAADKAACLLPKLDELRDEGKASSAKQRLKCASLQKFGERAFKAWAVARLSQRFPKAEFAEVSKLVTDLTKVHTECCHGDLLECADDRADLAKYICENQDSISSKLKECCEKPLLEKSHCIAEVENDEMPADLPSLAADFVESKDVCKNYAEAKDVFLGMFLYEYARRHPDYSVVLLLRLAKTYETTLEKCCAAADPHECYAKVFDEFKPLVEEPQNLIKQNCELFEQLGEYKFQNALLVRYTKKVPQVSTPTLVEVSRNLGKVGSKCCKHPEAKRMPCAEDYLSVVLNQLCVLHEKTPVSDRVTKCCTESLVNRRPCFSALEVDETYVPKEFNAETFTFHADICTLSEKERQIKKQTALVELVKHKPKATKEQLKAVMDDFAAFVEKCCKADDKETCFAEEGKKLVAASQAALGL

[4] = incubation with zinc (II) for three days; 20 MHz, 37.0 ± 0.1° C.; reported by S. Laurent et al; cited from earlier work
[5] = cited from earlier work
[6] = Stability constants of the calcium complex by potentiometric titration (BEST program); assay type: physicochemical
Description: as §1

[7] = Stability constants of the copper complex by potentiometric titration (BEST program); assay type: physicochemical
Description: as §1

[8] = Stability constants of the zinc complex by potentiometric titration (BEST program); assay type: physicochemical
Description: as §1

[9] = Selectivity constant and modified selectivity constant of the gadolinium complex; assay type: physicochemical
Description: The selectivity constant is used only for showing the difference between the gadolinium complex and other metal complexes. However, due to the coexistence of the zinc ion, the calcium ion and the copper ion in vivo, all the following factors, which are the pH value, the protonation constant for the ligand, the concentrations of the metal ions (Zn^2+, Ca^2+, Cu^2+) and the stability constants for Gd^3+, Zn^2+, Ca^2+ and Cu^2+ complexes should be considered for obtaining the selectivity constant with a new definition, called modified selectivity constant (Ksel′) and defined by the following equation: Ksel′=Ktherm(αH^−1+αCaL^−1+αCuL^−1+αZnL^−1)^−1, where αH^−1=1+K1^H[H^+]+K1^HK2^H [H^+]^++ . . .; αCaL^−1=1+KCaL[Ca^2+]; αCuL^−1=1+KCuL[Cu^2+]; αZnL^−1=1+KZnL[Zn^2+]; and thus the modified selectivity constant of the gadolinium complex at the biological pH (7.4) could be calculated by the mentioned equation (the value of the conditional stability constant is calculated previously, and the concentrations of the zinc, the calcium and the copper ions are 50 μM, […] and 1 μm, respectively).

[10] = Protonation constants by potentiometric titration (PKAS program); assay type: physicochemical; conditions: for ΣpKa: sum of the four protonation constants
Method: Firstly, the ligands (HnL) are deprotoned (L^n−) by treating them with the alkaline solution. After that, a slow addition of the acidic solution for associating the deprotonated ligand with the protons (H^+) is performed, and thus protonated organic ligands are formed. The equation for the protonation constant is shown as follows:
Please refer to FIG. 2, which is a potentiometric titration curve for CB-TTDA (the ionic strength I=0.1 M Me4NCl and the temperature T=25.0±0.1° C.) measured by an automatic titrator system. The protonation constants for the CB-TTDA are determined from the titration data with the FORTRAN computer program PKAS as shown in Table 1.

[11] = I = 0.1 M Me4NCl, T = 25.0 ± 0.1° C.; reported values; cited from earlier work
[12] = I = 0.1 M Me4NCl, T = 25.0 ± 0.1° C.; reported values; cited from earlier work; remark: listed apart in the source
[13] = reported values; cited from earlier work
[14] = I = 0.1 M Me4NCl, T = 25.0 ± 0.1° C.; reported values; cited from earlier work; remark: listed apart in the source
[15] = I = 0.1 M Me4NCl, T = 25.0 ± 0.1° C.; reported values; cited from earlier work; remark: listed apart in the source
[16] = Dy (III)-induced 17O-NMR water shift (d.i.s.), number of inner space water molecules; assay type: physicochemical
Description: From measuring the d.i.s. (Dy (III)-induced ^17O-NMR water shifts) of the ^17O nuclides in water induced by Dy (III) via ^17O-NMR and graphing the concentration of Dy (III) complexes with respect to the d.i.s., a linear relationship is found, as shown in the following equation: d.i.s.=qΔ[Dy(ligand)n(H2O)q/[H2O]
The slope is qΔ/[H2O] with q being the number of inner space water molecule. […] Because the Dy (III) hydrate is able to combine with 8 water molecules and is in direct proportion to the slope, the value of q (q=0.9) for [Dy(CB-TTDA)]^2− is obtained thereby.

[17] = after removal of the galactopyranoside by β-gal; cited from earlier work
[18] = I = 0.1 M Me4NCl, T = 25.0 ± 0.1° C.

Compound: CNC(=O)CN(CCN(CCN(CC(=O)[O-])CC(=O)NC)CC(=O)[O-])CC(=O)[O-].[Gd+3] [[Gd(DTPA-BMA)], bis-methylamide gadodiamide injection]
R1^p (t = 3days)/R1^p (t = 0 days) [4]: 9%

Compound: O=C(O)CN(CCN(CC(=O)O)CC1(CN(CC(=O)O)CC(=O)O)CCC1)CC(=O)O [CB-TTDA, 6-carboxymethyl-3-{{[1-(N,N-dicarboxymethyl)-2-aminomethyl]-cyclobut-1-yl}-methyl}-3,6-diazaoctanedioic acid]
log KML [GdL]/[Gd][L] (thermodynamic stability constant) [2]: 20.28(0.03) | pGd [2]: 15.82 | log K(Gd/Ca) (selectivity constant) [9]: 11.76 | log K(Gd/Cu) (selectivity constant) [9]: 2.57 | log K(Gd/Zn) (selectivity constant) [9]: 4.22 | log Kn^H [H4L]/[H3L][H] [10, 18]: 3.11(0.04) | log Kn^H [HL]/[L][H] [10, 18]: 11.08(0.03) | ΣpKa [10]: 28.59 | pCu [7]: 13.26 | log KCuHL [7, 18]: 5.29(0.03) | log KML [CuL]/[Cu][L] [7, 18]: 17.71(0.02) | log KCuL (pH = 7.4) (conditional stability constant) [7]: 12.25 | pCa [6]: 4.09 | log KCaHL [6, 18]: 6.24(0.02) | log KML [CaL]/[Ca][L] [6, 18]: 9.52(0.02) | log KCaL (pH = 7.4) (conditional stability constant) [6]: 4.06 | pZn [8]: 12.41 | log KML [ZnL]/[Zn][L] [8, 18]: 16.06(0.03) | log KZnHL [8, 18]: 8.13(0.04) | log KZnL (pH = 7.4) (conditional stability constant) [8]: 10.60

Compound: O=C(O)CN(CCCN(CC(=O)O)CC(=O)O)CCN(CC(=O)O)CC(=O)O [TTDA, 3,6,10-tri-(carboxymethyl)-3,6,10-triazadodecanedioic acid]
log KCuHL [11]: 5.69 | log KML [CuL]/[Cu][L] [11]: 16.77 | log KML [GdL]/[Gd][L] (thermodynamic stability constant) [12]: 18.96 | log Kn^H [H2L]/[HL][H] [13]: 8.92 | log Kn^H [H3L]/[H2L][H] [13]: 5.12 | log Kn^H [H4L]/[H3L][H] [13]: 2.80 | log Kn^H [HL]/[L][H] [13]: 10.60 | pGd [2]: 15.25 | log K(Gd/Ca) (selectivity constant) [9]: 9.83 | log K(Gd/Cu) (selectivity constant) [9]: 2.19 | log K(Gd/Zn) (selectivity constant) [9]: 2.93 | ΣpKa [10]: 27.44 | pCu [7]: 13.06 | log KCuL (pH = 7.4) (conditional stability constant) [7]: 12.06 | log KCaHL [14]: 8.20 | log KML [CaL]/[Ca][L] [14]: 9.13 | log KML [ZnL]/[Zn][L] [15]: 16.03 | log KZnHL [15]: 7.80 | pCa [6]: 6.28 | log KCaL (pH = 7.4) (conditional stability constant) [6]: 4.42 | pZn [8]: 12.86 | log KZnL (pH = 7.4) (conditional stability constant) [8]: 11.32

Compound: CC1(N(CC(=O)[O-])CC(=O)[O-])CN(CC(=O)[O-])CCN(CC(=O)[O-])C1.[Gd+3] [[Gd(AAZTA)]^−]
relaxivity ([5]; 20 MHz and 298 K): 7.1 mM⁻¹ s⁻¹ | relaxivity calculated by simulating the NMRD profile ([5]; τr increased to 30 ns): 100 mM⁻¹ s⁻¹

Compound: O=C([O-])CN(CCN(CC(=O)[O-])C[C@H](COP(=O)([O-])OC1CCC(c2ccccc2)(c2ccccc2)CC1)N(CC(=O)[O-])CC(=O)[O-])CC(=O)[O-].[Gd+3].[H+].[H+].[H+] [MS-325]
bound relaxivity r1^b ([3]; bound to HSA): 47.0 mM⁻¹ s⁻¹ | relaxivity for the combination with human serum albumin [3]: 47.0 mM⁻¹ s⁻¹ | binding constant with HSA, KA [3]: 3.0±0.2×10^4 M^−1

Compound: CNC[C@H](O)[C@@H](O)[C@H](O)[C@H](O)CO.CNC[C@H](O)[C@@H](O)[C@H](O)[C@H](O)CO.O=C([O-])CN(CCN(CC(=O)[O-])CC(=O)O)CCN(CC(=O)O)C(COCc1ccccc1)C(=O)[O-].[Gd+3] (stereo not shown) [[Gd(BOPTA)]^2−, gadobenate dimeglumine]
relaxivity ([5]; Fulvio U. et al., 1995): 4.39 mM⁻¹ s⁻¹

Compound: O=C([O-])CN1CCN(CCO[C@@H]2O[C@H](CO)[C@H](O)[C@H](O)[C@H]2O)CCN(CC(=O)[O-])CCN(CC(=O)[O-])CC1.[Gd+3] [Egad, 4,7,10-tri(aceticacid)-1-(2-β-galactopyranosylethoxy)-1,4,7,10-tetraazacyclododecane gadolinium (III)]
number of inner space water molecules after hydrolysis by β-galactosidase [17]: 1.2

More lines, main results first:

calculated conditional stability constant of the gadolinium complex ([2]; pH = 7.4): 18.14
Compound: CNC[C@H](O)[C@@H](O)[C@H](O)[C@H](O)CO.CNC[C@H](O)[C@@H](O)[C@H](O)[C@H](O)CO.O=C([O-])CN(CCN(CC(=O)[O-])CC(=O)O)CCN(CC(=O)[O-])CC(=O)O.[Gd+3] [[Gd(DTPA)]^2−, gadopentetate dimeglumine]
relaxivity r1 ([1]; pH 7.6 ± 0.1, P. Caravan et al.): 3.89 ± 0.03 mM⁻¹ s⁻¹ | relaxivity for the combination with human serum albumin [3]: 33.0 mM⁻¹ s⁻¹ | R1^p (t = 3days)/R1^p (t = 0 days) [4]: 49.79% | relaxivity ([5]; 20 MHz and 298 K): 3.89 mM⁻¹ s⁻¹ | relaxivity ([5]; Fulvio U. et al., 1995): 3.77 mM⁻¹ s⁻¹

log KML [CaL]/[Ca][L] [6, 18]: 9.52
Compound: O=C([O-])CN(CC(=O)[O-])CC1(CN(CCN(CC(=O)O)CC(=O)O)CC(=O)O)CCC1.[Ca+2] [[Ca(CB-TTDA)]^3−]

log KML [CuL]/[Cu][L] [7, 18]: 17.71
Compound: O=C([O-])CN(CCN(CC(=O)[O-])CC1(CN(CC(=O)[O-])CC(=O)[O-])CCC1)CC(=O)[O-].[Cu+2] [[Cu(CB-TTDA)]^3−]

log KML [ZnL]/[Zn][L] [8, 18]: 16.06
Compound: O=C([O-])CN(CC(=O)[O-])CC1(CN(CCN(CC(=O)O)CC(=O)O)CC(=O)O)CCC1.[Zn+2] [[Zn(CB-TTDA)]^3−]

pGd [2]: 19.14 | log K(Gd/Ca) (selectivity constant) [9]: 11.71 | log K(Gd/Cu) (selectivity constant) [9]: 1.08 | log K(Gd/Zn) (selectivity constant) [9]: 3.76 | ΣpKa [10]: 26.01 | pCu [7]: 18.06 | log KCuL (pH = 7.4) (conditional stability constant) [7]: 17.00 | pCa [6]: 7.46 | log KCaL (pH = 7.4) (conditional stability constant) [6]: 6.43 | pZn [8]: 15.39 | log KZnL (pH = 7.4) (conditional stability constant) [8]: 14.38
Compound: O=C(O)CN(CCN(CC(=O)O)CC(=O)O)CCN(CC(=O)O)CC(=O)O [DTPA]
log KCuHL [11]: 4.81 | log KML [CuL]/[Cu][L] [11]: 21.38 | log KML [GdL]/[Gd][L] (thermodynamic stability constant) [12]: 22.46 | log Kn^H [H2L]/[HL][H] [13]: 8.60 | log Kn^H [H3L]/[H2L][H] [13]: 4.28 | log Kn^H [H4L]/[H3L][H] [13]: 2.64 | log Kn^H [HL]/[L][H] [13]: 10.49 | log KCaHL [14]: 6.11 | log KML [CaL]/[Ca][L] [14]: 10.75 | log KML [ZnL]/[Zn][L] [15]: 18.70 | log KZnHL [15]: 5.60

slope of d.i.s. versus concentration of Dy (III) complex ([16]; 17O-NMR): −48.2 ppm/mM | q, number of inner space water molecule ([16]; from slope relative to Dy (III) hydrate with 8 water molecules): 0.9
Compound: O=C([O-])CN(CCN(CC(=O)[O-])CC1(CN(CC(=O)[O-])CC(=O)[O-])CCC1)CC(=O)[O-].[Dy+3] [[Dy(CB-TTDA)]^2−]

calculated conditional stability constant of the gadolinium complex [2]: 14.25
Compound: O=C([O-])CN(CCCN(CC(=O)[O-])CC(=O)[O-])CCN(CC(=O)[O-])CC(=O)[O-].[Gd+3] [[Gd(TTDA)]^2−]
relaxivity r1 ([1]; pH 7.5 ± 0.1, Y. M. Wang et al.): 3.85 ± 0.03 mM⁻¹ s⁻¹
